Reference: patent US20090024021A1, “Methods and Systems for Using Transcranial Magnetic Stimulation and Functional Brain Mapping for Examining Cortical Sensitivity, Brain Communication, and Effects of Medication” (priority 2002, published 2009)
Several values for one entry are separate records, joined by “and”; a condition that tells them apart may be missing. Identical values can stand only once.

Tests used:
[1] = test system: left primary motor cortex; assay: Resting motor threshold (RMT) by TMS with EMG of abductor pollicis brevis; format: in vivo, human
Protocol: (§1) Study design: We performed a randomized, double-blind, crossover trial involving two visits at least one week apart (FIG. 8). […] Serum LTG levels, RMTs, and interleaved TMS/phMRI images during both motor and then prefrontal TMS were then gathered for each subject. One week later they received LTG or placebo again, followed by identical RMT and interleaved TMS/phMRI studies.
(§2) General Procedure: After arriving at the laboratory in the early afternoon, baseline RMT was determined and baseline plasma levels of LTG were drawn. They were then given a single oral dose of 325 mg LTG or placebo. They then waited quietly for 3 hours. Three hours after taking the oral pill, RMT was determined and serum plasma levels were again drawn.
TMS: Focal TMS was delivered by a MAGSTIM Super Rapid stimulator (Magstim Co, Whitland, Dyfed, U.K) and applied through a focal figure-of-eight magnetic coil (each wing 70 mm in diameter). The optimal position of the magnetic coil for eliciting a MEP in the right abductor pollicis brevis (APB) was determined by holding the coil tangential to the scalp, and moving it in small steps over the presumed area of the left primary motor cortex at a slightly suprathreshold stimulus intensity. The coil was always held horizontally with the handle pointing backward and laterally at 45 degrees from the midline. This position was marked with a pen on a reusable latex swimming cap in order to assure constant placement of the coil throughout the visits. Stimulus intensity and threshold values were expressed as percent of the maximal stimulator output.
Resting Motor Threshold (RMT): Surface electromyographic (EMG) was recorded from the APB using 9-mm Ag—AgCl electrodes in a belly-tendon montage. The placement of electrodes on the thumb and hand was marked with a pen for exact re-placement in consecutive visits on the same day. The raw EMG signal was amplified by a factor of 100 gain and band-pass filtered, […] with a High Performance Band pass Filter Model V-7548 (LAB Linc. Co). The EMG was recorded on a G3 Macintosh with MacCRO (version 2.1).
RMT was determined in the resting APB in 4 steps: In step one and step three, thresholds were approached from a slightly suprathreshold intensity by reducing the stimulus intensity in 1% steps with a 5 sec interval between pulses, whereas in steps two and four, thresholds were approached from a slightly subthreshold intensity by increasing the stimulus intensity. RMT was defined as the first intensity that produced a MEP of greater than 50 μV in 3 out of 6 trials in the resting target muscle. A mean RMT for baseline or after medication was calculated by averaging the four values. Determination of the RMT using this technique usually lasted 30 minutes.
The percent change of RMT=100[(post-dose RMT−pre-dose RMT)/pre-dose RMT]. Paired Student's t tests (two tailed) were performed for the percent change of RMT between LTG and placebo. Wilcoxon nonparametric tests were performed for the number of active voxels in the region of interests (ROI) between LTG and placebo. We performed Pearson correlations between the percent change of RMT and the change of active voxel number. Two-way analysis of variance (ANOVA) was performed for % BOLD signal change in the different intensity stimulation and the different medication conditions. All statistical analyses were performed using SPSS 10.0 (Statistical Product and Service Solutions Inc, Chicago Ill.).

[2] = Safety and tolerability in the crossover trial; format: in vivo, human; details: single oral dose of 325 mg LTG; healthy young men
Protocol: as §1, §2

[3] = single oral dose of 325 mg of LTG; transiently (for 3 hours); cited from earlier work

SMILES: Nc1nnc(-c2cccc(Cl)c2Cl)c(N)n1 [LTG, Lamotrigine]
- RMT Post-3 hours ([1]; LTG visit, 3 hours after single oral dose of 325 mg LTG, individual subjects 1-12): 75.25% of machine maximum output (Magstim) and 66.25% of machine maximum output (Magstim) and 66.50% of machine maximum output (Magstim) and 99.00% of machine maximum output (Magstim) and 55.25% of machine maximum output (Magstim) and 100.00% of machine maximum output (Magstim) (2×) and 101.00% of machine maximum output (Magstim) (2×) and 64.50% of machine maximum output (Magstim) and 68.25% of machine maximum output (Magstim) and 95.25% of machine maximum output (Magstim)
- RMT Post-3 hours, mean ([1]; LTG visit, 3 hours after single oral dose of 325 mg LTG, mean of 12 subjects): 82.69% of machine maximum output (Magstim)
- RMT % Change from baseline ([1]; LTG visit, post-dose 3 hours vs pre-dose same day, individual subjects 1-12): 8.27% and 28.02% and 7.26% and 30.26% and 1.38% and 3.63% and 26.10% and 19.53% and 8.86% and 15.76% and 12.81% and 16.87%
- RMT % Change from baseline, mean ([1]; LTG visit, post-dose 3 hours vs same day baseline, mean of 12 subjects, placebo 0.6%): 14.9%
- TMS resting motor threshold compared with placebo ([1]; all 12 subjects, day subjects received LTG): significant increase
- adverse effects of the drug treatment or the stimulation [2]: None of the subjects reported experiencing adverse effects
- serum concentrations after single oral dose [3]: equal to steady state levels at clinically relevant chronic doses
